In patent publication US20240165150A1, “COMBINATION FOR TREATMENT OF THROMBOINFLAMMATION” (TX MEDIC AB, priority 2021, published 2024):

Legend:
Type in all cases: cell-based
human whole blood [1] = assay: Hematology analysis (cell counts) in IBMIR blood loop system; conditions: WI-38 cells 1 × 10^5/2 ml, 1 hour, IBsolvMIR 0.2 mg/ml, heparin 0, 0.2 or 0.5 U/ml
Method: (§1) Materials and Methods Dextran sulfate (IBsolvMIR®, Tikomed AB, Viken, Sweden, WO 2016/076780), heparin (Heparin LEO®, LEO Pharma, cat. No. 585679) and WI-38 cells (American Type Culture Collection (ATCC)) were administered to blood loops as shown in Table 1. Vehicle was an aqueous 0.9% NaCl solution. Each loop contained in total 2 ml of freshly taken human whole blood from three blood donors. Reagents were added to the loops according to Table 1 and the loops were set to rotate at 37° C. Blood samples were taken at the zero, 15 min, 1 hour and 4 hour time points.
Blood samples were extracted from loops at the zero and 1 hour time points and platelets, red blood cells and white blood cells were automatically counted using a Sysmex XN-L 350 Hematology Analyzer.

human whole blood [2] = assay: Cytokine analysis by electrochemiluminescence in blood loop system
Method: as §1
Blood was extracted from loops at the zero and 4 hour time points and cytokines were analyzed by electrochemiluminescence (ECL) in multiplex mode using MESO QuickPlex SQ 120 (Mesoscale Discovery).

human whole blood [3] = assay: Flow cytometry analysis of blood from blood loops; conditions: 1 hour
Method: as §1
Fresh blood was collected and immediately mixed with ethylenediaminetetraacetic acid (EDTA) (zero time point samples) or added to loops followed by sampling and mixing with EDTA at the 1 hour time point. Data was analyzed using flow cytometry.

human whole blood [4] = assay: Coagulation (blood clot size) and hemolysis in IBMIR blood loop system
Method: as §1
Clot scale: 1=Small clot observed (<2 mm), 2=Medium-sized clot observed (2-5 mm), 3=Large clot observed (>5 mm), * Clot removed from loop (not noted at 4 h when all blood was removed from loop), n.s.=no sample. Hemolysis: +=hemolysis observed in blood loop.

human whole blood [5] = assay: Complement split products C3a and C5a by ELISA in blood loop system
Method: as §1
Complement analysis Complement split product C3a and C5a concentrations were measured by ELISA according to the manufacturer's instructions (RayBio® Human C3a and C5a ELISA Kit for serum, plasma, and cell culture supernatants by RayBiotech) at the zero, 15 min and 1 hour time points.

[6] = vehicle at 0.5 U/ml heparin, donors D2 and D3, 4 hour
[7] = heparin 0.2 or 0.5 U/ml combined with IBsolvMIR 0.2 mg/ml, WI-38 cells
[8] = WI-38-treated loops, three donors
[9] = agent alone, WI-38 cells, listed as Dextran sulfate
[10] = vs corresponding WI-38 treated without IBsolvMIR

With heparin [reference compound] the “WBC counts (WI-38 induced decrease)” value (human whole blood [1]) was “does not affect WBC counts”, the IL-6 response (human whole blood [2]; [6]) was greater than 100 fold and the TNF-α release (human whole blood [2]; [6]) was “dramatic elevated vehicle response”. The “C5b-9 formation on platelets (proportion of C5b-9 positive platelets)” value (shortened to “C5b-9 formation on platelets”) (human whole blood [3]; agent alone, WI-38 cells) was “did not have any effects”, the “Platelet binding to WI-38 cells (cell transplant)” value (“Platelet binding to WI-38 cells” below) (human whole blood [3]; agent alone, WI-38 cells) was “did not have any effect at all” and the “Proportion of platelets bound to granulocytes” value (human whole blood [3]; agent alone, WI-38 cells) was “did not have any effect at all”. For the same substance, the “Proportion of platelets bound to monocytes” value (human whole blood [3]; agent alone, WI-38 cells) was “did not have any effect at all”, the “C5b-9 formation on platelets” value (human whole blood [3]; [7]) was “clear concentration-dependent effect” and the “Platelet binding to WI-38 cells” value (human whole blood [3]; [7]) was “potentiated the effects of IBsolvMIR®”. For the same substance, the “C5b-9 formation on platelets” value (human whole blood [3]; heparin 0.2 or 0.5 U/ml combined with IBsolvMIR 0.2 mg/ml, WI-38 cells, listed as Heparin) was “potentiated the effects of IBsolvMIR®”.

Dextran sulfate [IBsolvMIR®] was tested, and the “WBC counts (WI-38 induced decrease)” value (human whole blood [1]) was “completely rescued the WBC decrease”, the “WBC counts (WI-38 induced decrease)” value (human whole blood [1]; listed as dextran sulfate) was “capable of restoring WBC counts” and the “Clotting, loops without WI-38 cells” value (human whole blood [4]; IBsolvMIR alone loops, all donors, 15 min to 4 hours) was “No clotting was observed”. For the same substance, the “Clotting at 15 minutes” value (human whole blood [4]; [8]) was “no clotting was observed”, the “Clotting at one hour” value (human whole blood [4]; [8]) was “medium-sized clots were observed in two WI-38+IBsolvMIR® loops” and the IL-6 cytokine release (human whole blood [2]; 4 hour time point) was “ambiguous”. The MCP-1 levels (human whole blood [2]; IBsolvMIR alone groups vs corresponding vehicle, 4 hour) was “higher than corresponding vehicle”, the MCP-1 levels (human whole blood [2]; WI-38 cells with IBsolvMIR vs corresponding WI-38 alone group, 4 hour) was “slightly increased levels of MCP-1” and the IL-8 release (human whole blood [2]; vehicle and WI-38 cell-induced, 4 hour) was “clear IBsolvMIR® dependent reduction”. For the same substance, the “Activation of granulocytes (CD66b+)” value (human whole blood [3]; WI-38 cells) was “overall decreased activation profile”, the “Activation of monocytes (CD14+)” value (human whole blood [3]; WI-38 cells) was “overall decreased activation profile” and the “Aggregation of platelets (decrease in proportion of single platelets)” value (human whole blood [3]; WI-38 cells) was “entirely revoked”. For the same substance, the “B cell count (WI-38 dependent decrease)” value (human whole blood [3]; WI-38 cells) was “entirely reversed up to vehicle level”, the Frequency of granulocytes (human whole blood [3]; WI-38 cells) was “increased frequency” and the Frequency of monocytes (human whole blood [3]; WI-38 cells) was “increased frequency”. For the same substance, the “TF positive cell counts” value (human whole blood [3]; WI-38 treated groups with vs without IBsolvMIR) was “about ten-fold”, the “C5b-9 formation on platelets” value (human whole blood [3]; agent alone, WI-38 cells) was “partly reverted” and the “Platelet binding to WI-38 cells” value (human whole blood [3]; agent alone, WI-38 cells) was “partly reverted”. For the same substance, the “Proportion of platelets bound to granulocytes” value (human whole blood [3]; agent alone, WI-38 cells) was “capable of reducing”, the “Proportion of platelets bound to monocytes” value (human whole blood [3]; agent alone, WI-38 cells) was “capable of reducing” and the “C5b-9 formation on platelets” value (human whole blood [3]; [9]) was “capable of reducing”. For the same substance, the “Platelet binding to WI-38 cells” value (human whole blood [3]; [9]) was “capable of reducing”, the “Complement activation (C5b-9) on TF positive cells” value (human whole blood [3]; vs WI-38 alone) was “lower” and the “Frequency of apoptotic (annexin +) TF+ cells” value (human whole blood [3]; [10]) was “lower”. For the same substance, the “Frequency of dead (annexin + and/or viability dye +) TF+ cells” value (human whole blood [3]; [10]) was “lower”, the “C3a increase in WI-38 treated groups” value (human whole blood [5]; 15 min time point) was “entirely blocked” and the “C5a vs corresponding treatment without IBsolvMIR” value (human whole blood [5]; 1 hour time point) was “lower in almost every donor in every group”. For the same substance, the “C3a vs corresponding treatment without IBsolvMIR” value (human whole blood [5]; no heparin, 0.2 and 0.5 U/ml heparin, with and without WI-38 cells, 15 min and 1 hour) was “decreased C3a”.
